Structures can show the parent of a compound that is named as a salt.
How the values were obtained:
Format in all cases: biochemical
Details in all cases: FDA-approved drug screen
recombinant PRL-1 = target: T1, recombinant PRL-1 (Homo sapiens, UniProt Q93096); test: In vitro phosphatase assay (DiFMUP hydrolysis), PRL-1; further: test concentration or dose not given here
T1 construct: 6xHis (N, cleaved yes); made in house; host or cells: E. coli One Shot BL21 Star
T1 sequence (Q93096 1-173): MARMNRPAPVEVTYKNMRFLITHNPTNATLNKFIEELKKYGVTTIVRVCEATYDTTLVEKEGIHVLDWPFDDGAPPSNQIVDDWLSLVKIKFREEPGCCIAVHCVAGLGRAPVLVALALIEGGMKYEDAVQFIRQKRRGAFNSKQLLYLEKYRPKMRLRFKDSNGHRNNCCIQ

recombinant PRL-2 = target: T2, recombinant PRL-2 (Homo sapiens, UniProt Q12974); test: In vitro phosphatase assay (DiFMUP hydrolysis), PRL-2;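 further: PRL-2 activity read as DiFMUP hydrolysis after 20 min at room temperature with drug, enzyme first pre-reduced at 4 °C for 20 min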
T2 construct: 6xHis (N, cleaved yes); made in house; host or cells: E. coli One Shot BL21 Star
T2 sequence (Q12974 1-167): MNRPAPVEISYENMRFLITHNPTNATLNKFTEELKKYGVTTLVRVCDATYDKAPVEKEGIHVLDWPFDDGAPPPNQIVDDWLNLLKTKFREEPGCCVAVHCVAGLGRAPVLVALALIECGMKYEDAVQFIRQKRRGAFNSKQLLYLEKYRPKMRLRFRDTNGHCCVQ

recombinant PRL-3 = target: T3, recombinant PRL-3 (Homo sapiens, UniProt O75365); test: In vitro phosphatase assay (DiFMUP hydrolysis), PRL-3; further: test concentration or dose not given here
T3 construct: 6xHis (N, cleaved yes); made in house; host or cells: E. coli One Shot BL21 Star
T3 sequence (O75365 whole entry): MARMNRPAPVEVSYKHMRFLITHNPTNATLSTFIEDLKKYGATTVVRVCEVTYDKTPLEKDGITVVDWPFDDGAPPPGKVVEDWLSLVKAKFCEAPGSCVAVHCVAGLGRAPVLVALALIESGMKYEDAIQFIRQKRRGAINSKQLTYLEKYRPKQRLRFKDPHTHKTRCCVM

Compound	% Phosphatase Activity (compared to DMSO) PRL-1 (recombinant PRL-1; activity compared to DMSO) [%]	% Phosphatase Activity (compared to DMSO) PRL-2 (recombinant PRL-2; activity compared to DMSO) [%]	% Phosphatase Activity (compared to DMSO) PRL-3 (recombinant PRL-3; activity compared to DMSO) [%]	% Phosphatase Activity (compared to DMSO) PRL-1 (recombinant PRL-1; compared to DMSO) [%]	% Phosphatase Activity (compared to DMSO) PRL-2 (recombinant PRL-2; compared to DMSO) [%]	% Phosphatase Activity (compared to DMSO) PRL-3 (recombinant PRL-3; compared to DMSO) [%]
CC1(C)O[C@@H]2C[C@H]3[C@@H]4CCC5=CC(=O)C=C[C@]5(C)[C@@]4(F)[C@@H](O)C[C@]3(C)[C@]2(C(=O)CO)O1 [Triamcinolone Acetonide]	99	95	78	–	–	–
Cc1c(F)cc(C(=O)NC2CC2)cc1-c1ccc(C(=O)NCC(C)(C)C)cn1 [Losmapimod (GW856553X)]	–	–	–	91	66	103
C[C@H]1c2cccc(O)c2C(=O)C2=C(O)[C@]3(O)C(=O)C(C(N)=O)=C(O)[C@@H](N(C)C)[C@@H]3[C@@H](O)[C@@H]21 [Doxycycline HCl]	–	–	–	83	83	73
COc1ccc(C2CNC(=O)C2)cc1OC1CCCC1 (stereo not drawn) [Rolipram]	–	–	–	99	104	77
Nc1ccn([C@@H]2CS[C@H](CO)O2)c(=O)n1 [Lamivudine]	–	–	–	104	113	92
CCc1ccc(CCOc2ccc(CC3SC(=O)NC3=O)cc2)nc1 (stereo not drawn) [Pioglitazone]	–	–	–	103	105	80
Cc1noc(NS(=O)(=O)c2ccc(N)cc2)c1C [Sulfisoxazole]	88	95	89	–	–	–
Teneligliptin hydrobromide	95	100	90	–	–	–
CCOC(=O)[C@H](CCc1ccccc1)N[C@@H](C)C(=O)N1C(=O)N(C)C[C@H]1C(=O)O [Imidapril HCl]	–	–	–	105	95	76
COCCOC(=O)C1=C(C)NC(C)=C(C(=O)OC(C)C)C1c1cccc([N+](=O)[O-])c1 (stereo not drawn) [Nimodipine]	–	–	–	76	72	88
Cn1cc(C2=C(c3cn(C4CCN(Cc5ccccn5)CC4)c4ccccc34)C(=O)NC2=O)c2ccccc21 [Enzastaurin (LY317615)]	–	–	–	82	76	82
FC(F)(F)C(Cl)Br (stereo not drawn) [Halothane]	–	–	–	102	95	79
N#C[C@@H]1CCCN1C(=O)CNC12CC3CC(CC(O)(C3)C1)C2 [Vildagliptin (LAF-237)]	99	136	94	–	–	–
Cn1nnc2c(C(N)=O)ncn2c1=O [Temozolomide]	87	94	65	–	–	–
CC(C)(Oc1ccc(C2CC2(Cl)Cl)cc1)C(=O)O (stereo not drawn) [Ciprofibrate]	–	–	–	95	91	88
CC(=O)Oc1ccccc1C(=O)O [Aspirin]	–	–	–	126	110	102
OCCN(CCO)c1nc(N2CCCCC2)c2nc(N(CCO)CCO)nc(N3CCCCC3)c2n1 [Dipyridamole]	–	–	–	182	258	219
CC(C)C(=O)Oc1ccc(CO)cc1[C@H](CCN(C(C)C)C(C)C)c1ccccc1 [Fesoterodine Fumarate]	–	–	–	89	100	95
NS(=O)(=O)c1cc(C(=O)O)c(NCc2ccco2)cc1Cl [Furosemide]	–	–	–	97	107	114
CCOC(N)=O [Urethane]	99	100	91	–	–	–

Compound	% Phosphatase Activity (compared to DMSO) PRL-1 (recombinant PRL-1; activity compared to DMSO) [%]	% Phosphatase Activity (compared to DMSO) PRL-2 (recombinant PRL-2; activity compared to DMSO) [%]	% Phosphatase Activity (compared to DMSO) PRL-3 (recombinant PRL-3; activity compared to DMSO) [%]	% Phosphatase Activity (compared to DMSO) PRL-1 (recombinant PRL-1; compared to DMSO) [%]	% Phosphatase Activity (compared to DMSO) PRL-2 (recombinant PRL-2; compared to DMSO) [%]	% Phosphatase Activity (compared to DMSO) PRL-3 (recombinant PRL-3; compared to DMSO) [%]
CNCCC(Oc1ccc(C(F)(F)F)cc1)c1ccccc1.Cl (stereo not drawn) [Fluoxetine HCl]	–	–	–	93	105	68
CN1C[C@@H]2C[C@H]1CN2c1cc2c(cc1F)c(=O)c(C(=O)O)cn2C1CC1.CS(=O)(=O)O [Danofloxacin Mesylate]	–	–	–	998	757	146
COc1cc2c(Oc3ccc(NC(=O)C4(C(=O)Nc5ccc(F)cc5)CC4)cc3F)ccnc2cc1OCCCN1CCOCC1 [Foretinib (GSK1363089)]	–	–	–	103	105	97
CC[C@H]1OC(=O)C[C@@H](O)[C@H](C)[C@@H](O[C@@H]2O[C@H](C)[C@@H](O)[C@H](N(C)C)[C@H]2O)[C@@H](CCN2C[C@H](C)C[C@H](C)C2)C[C@@H](C)C(=O)/C=C/C(C)=C/[C@@H]1CO[C@@H]1O[C@H](C)[C@@H](O)[C@@H](OC)[C@H]1OC [Tilmicosin]	89	88	71	–	–	–
CCCOc1ccc(C(=O)OCCN(CC)CC)cc1N [Proparacaine HCl]	–	–	–	78	108	96
CCCCCCCCCCCCCCCC[N+](C)(C)C.[Br-] [Cetrimonium Bromide (CTAB)]	–	–	–	97	103	92
Nc1nc(Cl)nc2c1ncn2[C@@H]1O[C@H](CO)[C@@H](O)[C@@H]1F [Clofarabine]	–	–	–	97	100	81
CCC(COC(=O)c1cc(OC)c(OC)c(OC)c1)(c1ccccc1)N(C)C (stereo not drawn) [Trimebutine]	90	106	84	–	–	–
Nc1nc2[nH]cc(CCc3ccc(C(=O)N[C@@H](CCC(=O)O)C(=O)O)cc3)c2c(=O)[nH]1 [Pemetrexed]	–	–	–	92	86	98
Cc1ncc([N+](=O)[O-])n1CCO [Metronidazole]	–	–	–	89	92	87
Cc1nnc(SCC2=C(C(=O)O)N3C(=O)[C@@H](NC(=O)Cn4cnnn4)[C@H]3SC2)s1 [Cefazolin Sodium]	–	–	–	97	110	88
CC(C)C(=O)Nc1ccc([N+](=O)[O-])c(C(F)(F)F)c1 [Flutamide]	–	–	–	81	76	77
CC(=O)[C@@]1(O)CC[C@H]2[C@@H]3CCC4=CC(=O)CCC4=C3[C@@H](c3ccc(N(C)C)cc3)C[C@@]21C [Ulipristal]	95	92	79	–	–	–
CN1C(=O)CCS(=O)(=O)C1c1ccc(Cl)cc1 (stereo not drawn) [Chlormezanone]	–	–	–	81	127	91
O=C1O[C@H]([C@@H](O)CO)C([O-])=C1O.[Na+] [Sodium ascorbate]	85	71	113	–	–	–
COc1cc2c(cc1OC)C1CC(=O)C(CC(C)C)CN1CC2 (stereo not drawn) [Tetrabenazine (Xenazine)]	81	89	84	–	–	–
O=C1C(O)=C([C@H]2CC[C@H](c3ccc(Cl)cc3)CC2)C(=O)c2ccccc21 [Atovaquone]	–	–	–	96	88	90
Cn1c(=O)cc(N2CCC[C@@H](N)C2)n(Cc2ccccc2C#N)c1=O [Alogliptin]	–	–	–	112	123	96
CO[C@@]12[C@H](COC(N)=O)C3=C(C(=O)C(C)=C(N)C3=O)N1C[C@@H]1N[C@@H]12 [Mitomycin C]	–	–	–	68	54	64
